“And” between values parts separate entries of the source, which are not always exact repeats. Equal values may be shown once.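 96-well plates; 48 h exposure; 5 concentrations. Endpoints by linear interpolation between flanking doses. Not reached: highest tested concentration assigned. GI50 = concentration required for 50% inhibition of growth. TGI: concentration producing complete growth inhibition.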
How the values were obtained:
Test in all cases: DTP human tumour cell line panel, 48 h
OVCAR-5 ovarian = test system: OVCAR-5 ovarian
PC-3 prostate = test system: PC-3 prostate
KM12 colon = test system: KM12 colon
UACC-257 melanoma = test system: UACC-257 melanoma
HCT-15 colon = test system: HCT-15 colon
M14 melanoma = test system: M14 melanoma
RPMI-8226 leukemia = test system: RPMI-8226 leukemia
HCT-116 colon = test system: HCT-116 colon
SF-268 CNS = test system: SF-268 CNS
TK-10 renal = test system: TK-10 renal

| Compound | GI50 (OVCAR-5 ovarian) | TGI (OVCAR-5 ovarian) | GI50 (PC-3 prostate) | TGI (PC-3 prostate) | GI50 (KM12 colon) | TGI (KM12 colon) | GI50 (UACC-257 melanoma) | TGI (UACC-257 melanoma) | GI50 (HCT-15 colon) | TGI (HCT-15 colon) | GI50 (M14 melanoma) | TGI (M14 melanoma) | GI50 (RPMI-8226 leukemia) | TGI (RPMI-8226 leukemia) | GI50 (HCT-116 colon) | TGI (HCT-116 colon) | GI50 (SF-268 CNS) | TGI (SF-268 CNS) | GI50 (TK-10 renal) | TGI (TK-10 renal) |
| --- | --- | --- | --- | --- | --- | --- | --- | --- | --- | --- | --- | --- | --- | --- | --- | --- | --- | --- | --- | --- |
| OCCN1CCN(CC/C=C2\c3ccccc3Sc3ccc(Cl)cc32)CC1 | 3.75 µM and 11.8 µM | 14.1 µM and 24.9 µM | 2.75 µM and 2.96 µM | 11.8 µM and 13.4 µM | 2.73 µM and 2.81 µM | 6.02 µM and 7.34 µM | 1.97 µM and 1.71 µM | 4.18 µM and 3.17 µM | 1.84 µM and 2 µM | 3.64 µM and 4.29 µM | 1.78 µM | 4.27 µM and 3.22 µM | 1.17 µM and 3.12 µM | 3.11 µM and 10.8 µM | 2.39 µM and 1.98 µM | 4.85 µM and 4.18 µM | 2.58 µM and 4.5 µM | 10.9 µM and 15.1 µM | 4.59 µM and 2.07 µM | 19.4 µM and 5.62 µM |
| CC(Br)C(=O)Nc1ccc(C(=O)O)c(O)c1 (stereo not given) | – | > 100 µM | – | > 100 µM | – | > 100 µM | – | > 100 µM | – | > 100 µM | – | > 100 µM | – | > 100 µM | – | > 100 µM | – | > 100 µM | – | > 100 µM |
| O=C1OC(CN2CCOCC2)CN1/N=C/c1ccc([N+](=O)[O-])o1 (stereo not given) | – | > 100 µM | – | > 100 µM | – | 45.8 µM | – | > 100 µM | – | 39.2 µM | – | 45.6 µM | – | > 100 µM | – | 39.3 µM | – | > 100 µM | – | > 100 µM |
| Cc1cc(OCc2nnc3n2N=C(c2ccc(Cl)cc2Cl)CS3)ccc1Cl | > 100 µM | > 100 µM | 51.3 µM | > 100 µM | 53.3 µM | > 100 µM | 42.1 µM | 93.2 µM | 39.4 µM | > 100 µM | 43.4 µM | > 100 µM | 40.6 µM | > 100 µM | 53 µM | > 100 µM | 73.4 µM | > 100 µM | 32 µM | > 100 µM |
| Cn1cnc([N+](=O)[O-])c1Sc1ncn[nH]1 | > 100 µM | > 100 µM | > 100 µM | > 100 µM | > 100 µM | > 100 µM | 68.2 µM | > 100 µM | 70.1 µM | > 100 µM | > 100 µM | > 100 µM | 43.9 µM | > 100 µM | > 100 µM | > 100 µM | > 100 µM | > 100 µM | 98.2 µM | > 100 µM |
| COc1cc2c(c(OC3OC(CO)C(O)C(O)C3O)c1)C(=O)CC(c1ccc(O)cc1)O2 (stereo not given) | – | > 100 µM | – | > 100 µM | – | > 100 µM | – | > 100 µM | – | > 100 µM | – | > 100 µM | – | > 100 µM | – | > 100 µM | – | > 100 µM | – | > 100 µM |
| COC1=C2CC(C)CC(OC)C(O)C(C)/C=C(\C)C(OC(N)=O)C(OC)/C=C\C=C(/C)C(=O)NC(=C(/C=N/N3CCCCC3)C1=O)C2=O (stereo not given) | – | 34.5 µM | – | > 100 µM | – | 25.1 µM | – | 27.7 µM | – | 28.6 µM | – | 37.4 µM | – | 42 µM | – | 9.48 µM | – | 25.1 µM | – | 72.1 µM |
| COc1ccc2nc(NC(=O)c3cccnc3Nc3cc(OC)c(OC)c(OC)c3)sc2c1 | 14.5 µM | 29 µM | 6.67 µM | 23.2 µM | 4.51 µM | 19 µM | 14.6 µM | 29.6 µM | 11.2 µM | 85.6 µM | 10.5 µM | 29.6 µM | 9.94 µM | 34.9 µM | 4.5 µM | 18.4 µM | 4.43 µM | 18.9 µM | 4.31 µM | 14.1 µM |
| CCOC(=O)c1c(C)c(C)n2c1NC(=O)C2 | – | > 100 µM | – | > 100 µM | – | > 100 µM | – | > 100 µM | – | > 100 µM | – | > 100 µM | – | > 100 µM | – | > 100 µM | – | > 100 µM | – | > 89.4 µM |
| CN(C)CCN1C(=O)c2cccc3cccc(c23)C1=O | 18.1 µM | > 25 µM | 18.7 µM | > 25 µM | 12.9 µM | > 25 µM | > 25 µM | > 25 µM | 11.4 µM | > 25 µM | > 25 µM | > 25 µM | 16.6 µM | > 25 µM | 9.57 µM | > 25 µM | 18.9 µM | > 25 µM | 12.3 µM | > 25 µM |
| Cn1c(=O)c(Oc2ccc(F)cc2F)cc2cnc(NCCS(C)(=O)=O)nc21 | > 25 µM | > 25 µM | > 25 µM | > 25 µM | > 25 µM | > 25 µM | > 25 µM | > 25 µM | > 25 µM | > 25 µM | > 25 µM | > 25 µM | > 25 µM | > 25 µM | > 25 µM | > 25 µM | > 25 µM | > 25 µM | > 25 µM | > 25 µM |

Reference: PubChem BioAssay (NCI)
